23 compounds from patent US10660877B2 (BRISTOL-MYERS SQUIBB COMPANY, priority 2016, dated 2020) can be followed below.

Like-named read-outs stand apart in the source and are kept apart here.

Test [1] deals with human TLR8 (Homo sapiens (Human), UniProt Q9NR97). The test is described as follows: TLR8 inhibition reporter assay (HEK-Blue cells, SEAP reporter, R848 stimulation). (A reporter such as luciferase makes a cellular process visible.)
The target in test [2] is human TLR7 (Homo sapiens (Human), UniProt Q9NYK1). Briefly: TLR7 inhibition reporter assay (HEK-Blue cells, SEAP reporter, gardiquimod stimulation). The class given is cell-based. As to conditions: HEK-Blue cells overexpressing human TLR7, gardiquimod 7.5 μM.
Sequence of human TLR7 (Q9NYK1 27-1049): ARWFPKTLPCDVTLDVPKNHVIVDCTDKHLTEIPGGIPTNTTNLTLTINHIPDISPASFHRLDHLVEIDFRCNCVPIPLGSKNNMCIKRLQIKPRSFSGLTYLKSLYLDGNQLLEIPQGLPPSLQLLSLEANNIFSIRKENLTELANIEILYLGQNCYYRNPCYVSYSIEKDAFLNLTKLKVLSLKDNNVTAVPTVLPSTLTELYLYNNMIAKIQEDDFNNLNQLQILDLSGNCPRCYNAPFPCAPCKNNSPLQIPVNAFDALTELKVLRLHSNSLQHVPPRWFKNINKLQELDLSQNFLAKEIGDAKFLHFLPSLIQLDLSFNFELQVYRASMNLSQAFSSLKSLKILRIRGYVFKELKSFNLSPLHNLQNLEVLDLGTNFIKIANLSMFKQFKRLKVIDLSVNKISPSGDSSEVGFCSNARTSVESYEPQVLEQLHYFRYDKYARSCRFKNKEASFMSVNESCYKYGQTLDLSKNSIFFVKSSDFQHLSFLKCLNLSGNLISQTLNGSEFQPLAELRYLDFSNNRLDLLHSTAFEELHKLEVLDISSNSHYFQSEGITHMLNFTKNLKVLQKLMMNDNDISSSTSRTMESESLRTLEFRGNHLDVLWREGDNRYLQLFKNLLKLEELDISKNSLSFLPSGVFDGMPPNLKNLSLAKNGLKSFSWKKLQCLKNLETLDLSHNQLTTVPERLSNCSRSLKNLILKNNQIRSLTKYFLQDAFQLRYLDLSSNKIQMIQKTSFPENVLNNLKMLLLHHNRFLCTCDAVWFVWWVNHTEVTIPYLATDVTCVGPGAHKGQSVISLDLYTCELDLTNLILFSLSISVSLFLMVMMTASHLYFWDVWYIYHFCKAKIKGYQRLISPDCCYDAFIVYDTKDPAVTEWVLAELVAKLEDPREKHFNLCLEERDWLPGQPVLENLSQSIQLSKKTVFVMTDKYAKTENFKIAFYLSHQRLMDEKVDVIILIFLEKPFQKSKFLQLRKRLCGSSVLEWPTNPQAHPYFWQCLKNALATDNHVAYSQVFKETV
Test [3] has as its target human TLR9 (Homo sapiens (Human), UniProt Q9NR96). The test is described as follows: TLR9 inhibition reporter assay (HEK-Blue cells, SEAP reporter, ODN2006 stimulation).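 Also: compounds tested over 0.05 nM to 50 µM, 22 h incubation, inhibition taken as SEAP signal drop from agonist plus DMSO wells toward a known inhibitor control.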
Method: TLR7/8/9 Inhibition Reporter Assays
Briefly, cells are seeded into Greiner 384 well plates (15000 cells per well for TLR7, 20,000 for TLR8 and 25,000 for TLR9) and then treated with test compounds in DMSO to yield a final dose response concentration range of 0.05 nM-50 μM. […] After a 22 hour incubation at 37° C., 5% CO2, SEAP levels are determined with the addition of HEK-Blue™ Detection reagent (Invivogen), a cell culture medium that allows for detection of SEAP, according to manufacturer's specifications. The percent inhibition is determined as the % reduction in the HEK-Blue signal present in wells treated with agonist plus DMSO alone compared to wells treated with a known inhibitor.
Where [4] appears, read: read-out: TLR8 IC50, HEK-Blue cells overexpressing human TLR8, R848 15.9 μM.
The mark [5] stands for this setting: read-out: TLR9 IC50, HEK-Blue cells overexpressing human TLR9, ODN2006 5 nM.
The mark [6] stands for this setting: TLR8 IC50, HEK-Blue cells overexpressing human TLR8, R848 15.9 μM.
Where [7] appears, read: TLR9 IC50, HEK-Blue cells overexpressing human TLR9, ODN2006 5 nM.

Broadly, the IC50 is the concentration that inhibits the measured activity by half.

Sequence of human TLR9 (Q9NR96 26-1032): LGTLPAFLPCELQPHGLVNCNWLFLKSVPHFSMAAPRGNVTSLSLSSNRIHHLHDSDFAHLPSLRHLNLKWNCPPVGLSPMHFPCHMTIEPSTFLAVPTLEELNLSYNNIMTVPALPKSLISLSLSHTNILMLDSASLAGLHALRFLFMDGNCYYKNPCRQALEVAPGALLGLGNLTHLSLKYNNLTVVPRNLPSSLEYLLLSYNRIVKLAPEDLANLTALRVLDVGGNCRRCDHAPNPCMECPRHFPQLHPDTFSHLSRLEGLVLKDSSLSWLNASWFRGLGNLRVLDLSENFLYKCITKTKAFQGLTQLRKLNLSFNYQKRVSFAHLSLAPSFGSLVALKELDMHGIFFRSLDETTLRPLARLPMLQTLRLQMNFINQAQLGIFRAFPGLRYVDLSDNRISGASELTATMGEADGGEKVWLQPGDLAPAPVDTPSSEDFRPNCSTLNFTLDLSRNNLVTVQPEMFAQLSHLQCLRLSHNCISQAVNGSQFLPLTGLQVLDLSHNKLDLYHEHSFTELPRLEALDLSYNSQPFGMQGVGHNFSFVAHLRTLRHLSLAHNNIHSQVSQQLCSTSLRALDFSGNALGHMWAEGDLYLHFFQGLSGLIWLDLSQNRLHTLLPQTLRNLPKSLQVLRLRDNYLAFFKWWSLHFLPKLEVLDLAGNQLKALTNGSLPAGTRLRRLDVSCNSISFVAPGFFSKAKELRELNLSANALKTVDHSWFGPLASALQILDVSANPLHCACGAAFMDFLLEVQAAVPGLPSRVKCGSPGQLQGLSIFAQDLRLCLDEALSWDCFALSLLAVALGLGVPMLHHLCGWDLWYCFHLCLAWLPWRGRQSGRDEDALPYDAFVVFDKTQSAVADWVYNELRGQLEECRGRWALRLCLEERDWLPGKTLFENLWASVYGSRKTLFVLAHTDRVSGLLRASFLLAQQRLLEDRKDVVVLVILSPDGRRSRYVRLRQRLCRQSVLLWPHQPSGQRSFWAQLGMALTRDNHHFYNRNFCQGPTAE
Sequence of human TLR8 (Q9NR97 27-1041): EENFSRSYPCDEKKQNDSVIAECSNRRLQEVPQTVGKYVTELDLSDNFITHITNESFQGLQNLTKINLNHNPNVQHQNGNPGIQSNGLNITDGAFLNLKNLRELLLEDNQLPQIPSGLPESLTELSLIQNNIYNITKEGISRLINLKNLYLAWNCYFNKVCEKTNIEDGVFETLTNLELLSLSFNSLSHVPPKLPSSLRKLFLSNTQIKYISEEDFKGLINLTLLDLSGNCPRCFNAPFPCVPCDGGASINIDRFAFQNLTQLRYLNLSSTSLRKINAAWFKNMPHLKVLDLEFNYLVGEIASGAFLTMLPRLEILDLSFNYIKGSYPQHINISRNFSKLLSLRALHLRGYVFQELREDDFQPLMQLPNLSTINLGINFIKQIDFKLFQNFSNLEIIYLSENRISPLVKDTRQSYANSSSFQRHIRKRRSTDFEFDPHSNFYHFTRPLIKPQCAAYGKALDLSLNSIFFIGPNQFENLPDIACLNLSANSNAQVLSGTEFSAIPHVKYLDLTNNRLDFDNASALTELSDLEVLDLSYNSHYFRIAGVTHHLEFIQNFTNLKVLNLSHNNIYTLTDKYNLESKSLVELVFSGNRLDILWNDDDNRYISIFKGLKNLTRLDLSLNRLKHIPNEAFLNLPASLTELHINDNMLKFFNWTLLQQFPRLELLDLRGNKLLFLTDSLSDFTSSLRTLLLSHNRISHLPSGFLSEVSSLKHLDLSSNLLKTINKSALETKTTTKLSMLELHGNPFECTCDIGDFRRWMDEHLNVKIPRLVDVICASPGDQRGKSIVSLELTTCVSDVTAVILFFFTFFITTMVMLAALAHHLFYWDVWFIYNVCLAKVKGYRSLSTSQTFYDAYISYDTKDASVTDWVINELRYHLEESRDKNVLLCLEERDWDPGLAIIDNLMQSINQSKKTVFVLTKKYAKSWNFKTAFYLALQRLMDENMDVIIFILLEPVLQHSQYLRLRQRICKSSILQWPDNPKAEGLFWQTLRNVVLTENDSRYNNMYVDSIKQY

For the compound `Cc1cc(-c2[nH]c3ccc(C4CCN(C(=O)CN5CCCCC5)CC4)cc3c2C(C)C)cc(C)n1` [Example 351, 1-(4-(2-(2,6-dimethylpyridin-4-yl)-3-isopropyl-1H-indol-5-yl)piperidin-1-yl)-2-(piperidin-1-yl)ethan-1-one], the results for the IC50 in test [1] (setting [4]), in test [2] and in test [3] (setting [5]) were 7.3 nM, 3.1 nM and 559 nM, respectively.
Consider `Cc1cc(-c2[nH]c3ccc(C4CCN(C(=O)CN5CCCC5)CC4)cc3c2C(C)C)cc(C)n1` [Example 352, 1-(4-(2-(2,6-dimethylpyridin-4-yl)-3-isopropyl-1H-indol-5-yl)piperidin-1-yl)-2-(pyrrolidin-1-yl)ethan-1-one], for which the IC50 in test [1] (setting [4]) stood at 10.4 nM; in test [2] it was 3.3 nM; in test [3] (setting [5]), 365 nM.
Turning to `Cc1cc(-c2[nH]c3ccc(C4CCN(C(=O)CNC5(C)CCC5)CC4)cc3c2C(C)C)cc(C)n1` [Example 353, 1-(4-(2-(2,6-dimethylpyridin-4-yl)-3-isopropyl-1H-indol-5-yl)piperidin-1-yl)-2-((1-methylcyclobutyl)amino)ethan-1-one], the half-inhibitory concentration (IC50) in test [1] (setting [4]) is 9.5 nM; in test [2] it was 4 nM; in test [3] (setting [5]), 429 nM.
For `Cc1cc(-c2[nH]c3ccc(C4CCN(C(=O)CN(C)C(C)C)CC4)cc3c2C(C)C)cc(C)n1` [Example 354, 1-(4-(2-(2,6-dimethylpyridin-4-yl)-3-isopropyl-1H-indol-5-yl)piperidin-1-yl)-2-(isopropyl(methyl)amino)ethan-1-one] the same measures were 11.2 nM, 3.5 nM and 447 nM.
For `Cc1cc(-c2[nH]c3ccc(C4CCN(C(=O)CN(C)CC(C)C)CC4)cc3c2C(C)C)cc(C)n1` [Example 355, 1-(4-(2-(2,6-dimethylpyridin-4-yl)-3-isopropyl-1H-indol-5-yl)piperidin-1-yl)-2-(isobutyl (methyl)amino)ethan-1-one] the same measures were 34 nM, 8.8 nM and 1070 nM.
For `CCN(C)CC(=O)N1CCC(c2ccc3[nH]c(-c4cc(C)nc(C)c4)c(C(C)C)c3c2)CC1` [Example 356, 1-(4-(2-(2,6-dimethylpyridin-4-yl)-3-isopropyl-1H-indol-5-yl)piperidin-1-yl)-2-(ethyl(methyl)amino)ethan-1-one] the same measures were 13.9 nM, 3.3 nM and 657 nM.
For the compound `Cc1cc(-c2[nH]c3ccc(C4CCN(C(=O)CN(C)C5CC5)CC4)cc3c2C(C)C)cc(C)n1` [Example 357, 2-(cyclopropyl(methyl)amino)-1-(4-(2-(2,6-dimethylpyridin-4-yl)-3-isopropyl-1H-indol-5-yl)piperidin-1-yl)ethan-1-one], the figures for the concentration for half-maximal inhibition (IC50) in test [1] (setting [4]), in test [2] and in test [3] (setting [5]) were 104 nM, 13.9 nM and 2350 nM, respectively.
With `Cc1cc(-c2[nH]c3ccc(C4CCN(C(=O)CN5CCCC(C)(C)C5)CC4)cc3c2C(C)C)cc(C)n1` [Example 358, 2-(3,3-dimethylpiperidin-1-yl)-1-(4-(2-(2,6-dimethylpyridin-4-yl)-3-isopropyl-1H-indol-5-yl)piperidin-1-yl)ethan-1-one], the 50% inhibitory concentration (IC50) in test [1] (setting [4]) came out at 23.7 nM; in test [2], 12.9 nM; in test [3] (setting [5]), 943 nM.
Take `Cc1cc(-c2[nH]c3ccc(C4CCN(C(=O)CN(C)C(C)(C)C)CC4)cc3c2C(C)C)cc(C)n1` [Example 359, 2-(tert-butyl (methyl)amino)-1-(4-(2-(2,6-dimethylpyridin-4-yl)-3-isopropyl-1H-indol-5-yl)piperidin-1-yl)ethan-1-one]: the half-inhibitory concentration (IC50) in test [1] (setting [4]) was 11.7 nM; in test [2], 7.1 nM; in test [3] (setting [5]) it was 826 nM.
For `Cc1cc(-c2[nH]c3ccc(C4CCN(C(=O)CNC5(C)CC5)CC4)cc3c2C(C)C)cc(C)n1` [Example 360, 1-(4-(2-(2,6-dimethylpyridin-4-yl)-3-isopropyl-1H-indol-5-yl)piperidin-1-yl)-2-((1-methylcyclopropyl)amino)ethan-1-one], the IC50 in test [1] (setting [4]) stood at 15.8 nM; in test [2] it was 4 nM; in test [3] (setting [5]), 795 nM.
Turning to `Cc1cc(-c2[nH]c3ccc(C4CCN(C(=O)CN5CCC(F)(F)CC5)CC4)cc3c2C(C)C)cc(C)n1` [Example 362, 2-(4,4-difluoropiperidin-1-yl)-1-(4-(2-(2,6-dimethylpyridin-4-yl)-3-isopropyl-1H-indol-5-yl)piperidin-1-yl)ethan-1-one], the results for the concentration for half-maximal inhibition (IC50) in test [1] (setting [4]), in test [2] and in test [3] (setting [5]) were 55.1 nM, 33.6 nM and 16100 nM, respectively.
For `Cc1cc(-c2[nH]c3ccc(C4CCN(C(=O)CN5CCCC(F)C5)CC4)cc3c2C(C)C)cc(C)n1` (stereo not drawn) [Example 363, 1-(4-(2-(2,6-dimethylpyridin-4-yl)-3-isopropyl-1H-indol-5-yl)piperidin-1-yl)-2-(3-fluoropiperidin-1-yl)ethan-1-one] the same measures were 34.2 nM, 8.3 nM and 1800 nM.
For `Cc1cc(-c2[nH]c3ccc(C4CCN(C(=O)CN5CC6(COC6)C5)CC4)cc3c2C(C)C)cc(C)n1` [Example 364, 1-(4-(2-(2,6-dimethylpyridin-4-yl)-3-isopropyl-1H-indol-5-yl)piperidin-1-yl)-2-(2-oxa-6-azaspiro[3.3]heptan-6-yl)ethan-1-one], in that order: 13.4 nM, 4.4 nM and 584 nM.
`Cc1cc(-c2[nH]c3ccc(C4CCN(C(=O)CNCC5(C)CC5)CC4)cc3c2C(C)C)cc(C)n1` [Example 365, 1-(4-(2-(2,6-dimethylpyridin-4-yl)-3-isopropyl-1H-indol-5-yl)piperidin-1-yl)-2-(((1-methylcyclopropyl)methyl)amino)ethan-1-one]: the IC50 in test [1] (setting [6]) is 22.9 nM; in test [2] it was 6.5 nM; in test [3] (setting [7]), 854 nM.
Take `Cc1cc(-c2[nH]c3ccc(C4CCN(C(=O)CN5CCCC5C)CC4)cc3c2C(C)C)cc(C)n1` (stereo not drawn) [Example 366, 1-(4-(2-(2,6-dimethylpyridin-4-yl)-3-isopropyl-1H-indol-5-yl)piperidin-1-yl)-2-(2-methylpyrrolidin-1-yl)ethan-1-one]: the IC50 in test [1] (setting [4]) turned out to be 10.9 nM; in test [2], 3.2 nM; in test [3] (setting [5]) it was 370 nM.
Turning to `Cc1cc(-c2[nH]c3ccc(C4CCN(C(=O)CNCC(C)O)CC4)cc3c2C(C)C)cc(C)n1` (stereo not drawn) [Example 367, 1-(4-(2-(2,6-dimethylpyridin-4-yl)-3-isopropyl-1H-indol-5-yl)piperidin-1-yl)-2-((2-hydroxypropyl)amino)ethan-1-one], the IC50 in test [1] (setting [6]) was determined as 54.1 nM; in test [2], 6.5 nM; in test [3] (setting [7]), 1890 nM.
As for `Cc1cc(-c2[nH]c3ccc(C4CCN(C(=O)CN5C(C)CCC5C)CC4)cc3c2C(C)C)cc(C)n1` (stereo not drawn) [Example 368, 1-(4-(2-(2,6-dimethylpyridin-4-yl)-3-isopropyl-1H-indol-5-yl)piperidin-1-yl)-2-(2,5-dimethylpyrrolidin-1-yl)ethan-1-one], the 50% inhibitory concentration (IC50) in test [1] (setting [4]) is 21 nM; in test [2], 4.5 nM; in test [3] (setting [5]), 742 nM.
`Cc1cc(-c2[nH]c3ccc(C4CCN(C(=O)CNCCC(C)O)CC4)cc3c2C(C)C)cc(C)n1` (stereo not drawn) [Example 369, 1-(4-(2-(2,6-dimethylpyridin-4-yl)-3-isopropyl-1H-indol-5-yl)piperidin-1-yl)-2-((3-hydroxybutyl)amino)ethan-1-one]: the half-inhibitory concentration (IC50) in test [1] (setting [4]) was 93.8 nM; in test [2] it was 10.3 nM; in test [3] (setting [5]), 1060 nM.
In the case of `COC[C@@H]1CCCN1CC(=O)N1CCC(c2ccc3[nH]c(-c4cc(C)nc(C)c4)c(C(C)C)c3c2)CC1` [Example 370, (S)-1-(4-(2-(2,6-dimethylpyridin-4-yl)-3-isopropyl-1H-indol-5-yl)piperidin-1-yl)-2-(2-(methoxymethyl)pyrrolidin-1-yl)ethan-1-one], the results for the IC50 in test [1] (setting [4]), in test [2] and in test [3] (setting [5]) were 28.8 nM, 4.7 nM and 889 nM, respectively.
Take `Cc1cc(-c2[nH]c3ccc(C4CCN(C(=O)CNCC(C)(C)N5CCOCC5)CC4)cc3c2C(C)C)cc(C)n1` [Example 371, 1-(4-(2-(2,6-dimethylpyridin-4-yl)-3-isopropyl-1H-indol-5-yl)piperidin-1-yl)-2-((2-methyl-2-morpholinopropyl)amino)ethan-1-one]: the results for the 50% inhibitory concentration (IC50) in test [1] (setting [6]), in test [2] and in test [3] (setting [7]) were 20.4 nM, 3.7 nM and 241 nM, respectively.
For `COCCN1CCN(CC(=O)N2CCC(c3ccc4[nH]c(-c5cc(C)nc(C)c5)c(C(C)C)c4c3)CC2)CC1` [Example 372, 1-(4-(2-(2,6-dimethylpyridin-4-yl)-3-isopropyl-1H-indol-5-yl)piperidin-1-yl)-2-(4-(2-methoxyethyl)piperazin-1-yl)ethan-1-one], in that order: 14.1 nM, 1.9 nM and 602 nM.
Regarding `Cc1cc(-c2[nH]c3ccc(C4CCN(C(=O)CNCC5CCCO5)CC4)cc3c2C(C)C)cc(C)n1` (stereo not drawn) [Example 373, 1-(4-(2-(2,6-dimethylpyridin-4-yl)-3-isopropyl-1H-indol-5-yl)piperidin-1-yl)-2-(((tetrahydrofuran-2-yl)methyl)amino)ethan-1-one], the values for the half-inhibitory concentration (IC50) in test [1] (setting [4]), in test [2] and in test [3] (setting [5]) were 17.5 nM, 2.5 nM and 429 nM, respectively.
Regarding `Cc1cc(-c2[nH]c3ccc(C4CCN(C(=O)CNC5(C)CCOCC5)CC4)cc3c2C(C)C)cc(C)n1` [Example 374, 1-(4-(2-(2,6-dimethylpyridin-4-yl)-3-isopropyl-1H-indol-5-yl)piperidin-1-yl)-2-((4-methyltetrahydro-2H-pyran-4-yl)amino)ethan-1-one], the IC50 in test [1] (setting [6]) worked out at 21.4 nM; in test [2], 5.6 nM; in test [3] (setting [7]), 548 nM.
